Data set [1] deals with Glycogen synthase kinase-3 beta (Homo sapiens) (UniProt P49841). Briefly: Inhibition of human recombinant GSK3-beta assessed as incorporation of [33P]gammaATP into G2S peptide at 25 uM.
Data set [2] in a line: Toxicity against medaka eggs assessed as eggs failing to hatch after 11 days. Also noted: species or system Egg. To be noted: oryzias latipes, 264 h.
A short description of data set [3]: Toxicity against medaka fry after 96 hrs. It is filed as organism-based. As to conditions: oryzias latipes, in vivo; read-out: LD50.
Data set [4] is described as follows: Selectivity ratio of LD50 for medaka fry to ED50 for medaka eggs. To be noted: oryzias latipes.
Data set [5] relates to Staphylococcus aureus. The data set is described as follows: Antibacterial activity against methicillin-resistant Staphylococcus aureus. It is filed as functional, organism-based.
In data set [6] the test system is Human immunodeficiency virus 1. Briefly: Antiviral activity against HIV1 3B assessed as reverse transcriptase activity by enzyme immunoassay. Type of data set: functional, organism-based. As to conditions: Human immunodeficiency virus 1, 3B.
Data set [7] relates to Leishmania donovani. Briefly: Antileishmanial activity against Leishmania donovani at 40 ug/mL after 72 hrs by alamar blue assay. Type of data set: functional, organism-based.
Data set [8] relates to Vero. Briefly: Cytotoxicity against african green monkey Vero cells at 4.76 ug/mL by neutral red assay. To be noted: chlorocebus sabaeus. It is filed as cell-based.
For data set [9], the target named is Beta-secretase 1 (Homo sapiens) (UniProt P56817). The data set is described as follows: Inhibition of human recombinant BACE1 by FRET-based assay.
Sequence of Beta-secretase 1 (Homo sapiens) (P56817 whole entry): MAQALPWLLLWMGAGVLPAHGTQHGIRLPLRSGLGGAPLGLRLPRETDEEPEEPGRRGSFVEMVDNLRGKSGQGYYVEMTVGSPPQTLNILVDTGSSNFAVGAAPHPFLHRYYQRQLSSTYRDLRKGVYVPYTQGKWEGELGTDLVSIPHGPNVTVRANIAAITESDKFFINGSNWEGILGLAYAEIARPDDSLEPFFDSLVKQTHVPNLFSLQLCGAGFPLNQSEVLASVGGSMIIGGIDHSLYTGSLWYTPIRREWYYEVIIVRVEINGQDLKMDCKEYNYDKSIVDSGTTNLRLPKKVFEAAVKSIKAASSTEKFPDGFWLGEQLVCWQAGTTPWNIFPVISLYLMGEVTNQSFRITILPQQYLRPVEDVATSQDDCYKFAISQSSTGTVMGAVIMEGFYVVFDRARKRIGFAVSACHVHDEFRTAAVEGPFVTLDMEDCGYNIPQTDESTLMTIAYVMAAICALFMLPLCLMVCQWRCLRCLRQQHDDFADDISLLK
Data set [10] has as its system Mycobacterium intracellulare. The data set is described as follows: Antibacterial activity against Mycobacterium intracellular by alamar blue assay. It is filed as functional, organism-based.
Data set [11] has as its target T1, Acetylcholinesterase (Bos taurus) (UniProt P23795).
T1 sequence (whole entry): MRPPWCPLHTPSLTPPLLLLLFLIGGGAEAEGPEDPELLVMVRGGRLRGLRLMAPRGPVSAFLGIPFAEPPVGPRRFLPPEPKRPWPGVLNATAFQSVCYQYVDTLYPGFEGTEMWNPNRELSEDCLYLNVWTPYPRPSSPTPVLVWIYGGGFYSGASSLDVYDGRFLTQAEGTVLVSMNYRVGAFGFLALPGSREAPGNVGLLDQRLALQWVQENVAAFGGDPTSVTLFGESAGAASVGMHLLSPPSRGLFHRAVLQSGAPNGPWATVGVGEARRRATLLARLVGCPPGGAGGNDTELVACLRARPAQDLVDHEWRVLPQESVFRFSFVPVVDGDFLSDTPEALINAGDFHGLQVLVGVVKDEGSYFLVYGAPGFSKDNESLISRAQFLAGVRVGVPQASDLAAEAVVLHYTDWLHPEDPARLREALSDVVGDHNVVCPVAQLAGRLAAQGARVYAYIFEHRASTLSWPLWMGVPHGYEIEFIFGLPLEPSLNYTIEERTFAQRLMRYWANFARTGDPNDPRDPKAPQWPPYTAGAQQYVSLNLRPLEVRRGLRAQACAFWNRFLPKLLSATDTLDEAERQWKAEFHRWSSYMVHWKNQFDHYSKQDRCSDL
Briefly: Inhibition of bovine AChE.

In data set [12] the test system is Staphylococcus aureus. The data set is described as follows: Antibacterial activity against Staphylococcus aureus. It is filed as functional, organism-based.
The subject of data set [13] is Plasmodium falciparum. The data set is described as follows: Antimalarial activity after 72 hrs against chloroquine-resistant Plasmodium falciparum W2 in erythrocytes at […] by LDH reporter assay. Type of data set: functional, organism-based. Background: In a reporter assay the amount or activity of a reporter protein is the signal.
In data set [14] the test system is Plasmodium falciparum. Briefly: Antimalarial activity after 72 hrs against chloroquine-sensitive Plasmodium falciparum D6 in erythrocytes at […] by LDH reporter assay. Type of data set: functional, organism-based.
The subject of the next data set is Cryptococcus neoformans. The data set is described as follows: Antifungal activity against Cryptococcus neoformans. It is filed as functional, organism-based.
Data set [15] in a line: Toxicity against medaka eggs assessed as eggs failing to hatch up to 10.6 uM after 11 days relative to control. The arrangement: species or system Egg. As to conditions: oryzias latipes, 264 h.
For data set [16], the system named is Plasmodium falciparum. The data set is described as follows: Antimalarial activity after 72 hrs against chloroquine-resistant Plasmodium falciparum W2 in erythrocytes by LDH reporter assay. Type of data set: functional, organism-based. As to conditions: W2, 72 h.
Data set [17] relates to Plasmodium falciparum. Briefly: Antimalarial activity after 72 hrs against chloroquine-sensitive Plasmodium falciparum D6 in erythrocytes by LDH reporter assay. It is filed as functional, organism-based. To be noted: D6, 72 h.
Data set [18] has as its target Glycogen synthase kinase-3 beta (Homo sapiens) (UniProt P49841). The data set is described as follows: Inhibition of GSK3-beta in human SH-SY5Y cells assessed as inhibition of tau phosphorylation at Ser396 at 5 uM after 24 hrs by ELISA sandwich method. Type of data set: cell-based. In general terms: ELISA stands for enzyme-linked immunosorbent assay.
Data set [19] has as its system Leishmania donovani. Briefly: Antileishmanial activity against Leishmania donovani after 72 hrs by alamar blue assay. Type of data set: functional, organism-based. For orientation: The colour change of resazurin is a common sign of viable cells or microbes.
The next data set has as its system SH-SY5Y. The data set is described as follows: Cytotoxicity against human SH-SY5Y cells at 5 uM. It is filed as cell-based.
Data set [20] relates to Vero. The data set is described as follows: Cytotoxicity against african green monkey Vero cells by neutral red assay. Type of data set: cell-based. To be noted: chlorocebus sabaeus.
Data set [21] concerns Mycobacterium tuberculosis. The data set is described as follows: Antituberculosis activity against Mycobacterium tuberculosis H37Rv after 24 hrs by alamar blue assay. Type of data set: functional.
Data set [22] has as its system Voltage-gated calcium channel. Briefly: Blocking of calcium channel in human SH-SY5Y cells assessed as inhibition of KCL depolarization-induced cytosolic calcium increase at 1 uM. Type of data set: cell-based.
Data set [23] deals with Mycobacterium tuberculosis. The data set is described as follows: Antituberculosis activity against Mycobacterium tuberculosis H37Rv at 64 ug/mL after 24 hrs by alamar blue assay. Type of data set: functional, organism-based.

In brackets after ≈: the same amount, converted by molar mass. Activity calls are given as the source filed them. No cut-off for these calls is given here.

Sequence of Glycogen synthase kinase-3 beta (Homo sapiens) (P49841 whole entry, looked up): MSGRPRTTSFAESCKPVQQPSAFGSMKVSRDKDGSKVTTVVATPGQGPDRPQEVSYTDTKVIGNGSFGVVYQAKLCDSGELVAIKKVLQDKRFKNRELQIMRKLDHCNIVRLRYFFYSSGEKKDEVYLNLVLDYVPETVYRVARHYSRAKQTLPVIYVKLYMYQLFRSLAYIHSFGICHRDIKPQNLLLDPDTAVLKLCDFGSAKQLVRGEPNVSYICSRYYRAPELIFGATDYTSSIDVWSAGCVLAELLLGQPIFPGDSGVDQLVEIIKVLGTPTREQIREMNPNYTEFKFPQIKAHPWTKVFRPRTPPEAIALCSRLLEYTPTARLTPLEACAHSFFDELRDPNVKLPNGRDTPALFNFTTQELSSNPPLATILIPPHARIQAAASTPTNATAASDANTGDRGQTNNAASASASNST

By inhibition is commonly meant the drop in the measured response relative to a control, in per cent. For `O[C@@H]1CCCN2CC[C@@H]1O[C@@]13CC[C@@H](OC[C@]45CN6CCCC/C=C\CC[C@](O)(C=C(c7nccc8c7[nH]c7ccccc78)[C@@H]4CC6)[C@H]25)[C@@H](O)CCN1[C@@H]1[C@]2(CN4CCCC/C=C\CC[C@]1(O)C=C(c1nccc5c1[nH]c1ccccc15)[C@@H]2CC4)C3` [NEO-KAULUAMINE], the inhibition in data set [1] turned out to be 82%. Further, the ED50 in [2] was 2450 nM. The LC50 at 96 h in data set [3] turned out to be 820 nM. Besides, the selectivity ratio in [4] came to 3.

For orientation: IC50 means the concentration at which inhibition is half-maximal. Regarding `O=C1CCCN2[C@@H]3[C@@]45CN6CCCC/C=C\CC[C@@]3(C=C(c3nccc7c3[nH]c3ccccc37)[C@@H]4CC6)O[C@]2(CC1)C5`, the outcome (in the data set with Staphylococcus aureus [5]; in the data set with Leishmania donovani [7]; in data set [9]; in [10]; in data set [11]; in the data set on Staphylococcus aureus [12]) was inactive. For the same compound, the result in the data set with Plasmodium falciparum [13], with Plasmodium falciparum [14] and in the data set with Cryptococcus neoformans was inactive. For the same compound, in data set [6], the IC50 turned out to be 17.5 µg/mL (≈ 31.1 µM). The Activity entry in the data set with Vero [8] is listed as “Non-toxic”.

Regarding `CCN(CC)CCCC(C)Nc1ccnc2cc(Cl)ccc12` (stereo not given) [CHLOROQUINE], the Activity result in [15] was “Not Active”.

By IC90 is commonly meant the point of the concentration-response curve where the effect stands at 90%. By MIC is commonly meant the least concentration at which growth counts as inhibited. Turning to `Oc1cccc2c1[nH]c1c(C3=C[C@@]4(O)CC/C=C\CCCCN5CC[C@@H]3[C@]3(CC6/C=C\CCCCN6[C@H]34)C5)nccc12` (stereo not given in full), in [1], the inhibition came to 86.7%. Besides, the IC50 in the data set with Staphylococcus aureus [5] turned out to be 4 µg/mL (≈ 7.08 µM); in data set [6], 0.59 µg/mL (≈ 1.04 µM); in the data set with Plasmodium falciparum [16] it was 0.008 µg/mL (≈ 0.0142 µM); with Plasmodium falciparum [17] it was 0.006 µg/mL (≈ 0.0106 µM); in data set [10], 1 µg/mL (≈ 1.77 µM); in the data set on Leishmania donovani [19], 6.2 µg/mL (≈ 11 µM). Besides, the IC50 in the data set on Staphylococcus aureus [12] came out at 0.9 µg/mL (≈ 1.59 µM); in the data set on Vero [20], 1.1 µg/mL (≈ 1.95 µM); in the data set with Cryptococcus neoformans, 3 µg/mL (≈ 5.31 µM). Also, the result in data set [9] and in data set [11] was inactive. Further, the result in [18] was Active. For the same compound, the IC90 in the data set on Leishmania donovani [19] stood at 11 µg/mL (≈ 19.5 µM). Besides, the Activity result in the data set with SH-SY5Y was “Non-toxic”. This compound returned an MIC in [21] of 0.9 µg/mL (≈ 1.59 µM). Besides, in data set [22], the “inhibition (INH)” value is 20%.

On to `O[C@]12C=C(c3nccc4c3[nH]c3ccccc34)[C@@H]3CCN(CCCC/C=C\CC1)C[C@@]31C[C@@H]3/C=C\CCCCN3[C@H]12` [MANZAMINE A], for which, in data set [1], the inhibition is 73.2%. The IC50 in the data set with Staphylococcus aureus [5] worked out at 0.7 µg/mL (≈ 1.28 µM); in data set [6], 4.2 µg/mL (≈ 7.65 µM); with Plasmodium falciparum [16], 0.008 µg/mL (≈ 0.0146 µM); with Plasmodium falciparum [17], 0.0045 µg/mL (≈ 0.0082 µM); in [10], 0.35 µg/mL (≈ 0.638 µM); in the data set with Leishmania donovani [19], 0.9 µg/mL (≈ 1.64 µM). The IC50 came to 0.5 µg/mL (≈ 0.911 µM) with Staphylococcus aureus [12], 1.2 µg/mL (≈ 2.19 µM) in the data set with Vero [20] and 3 µg/mL (≈ 5.47 µM) in the data set on Cryptococcus neoformans. The ED50 in data set [2] worked out at 170 nM. Further, the result in data set [9] and in [11] was inactive. Further, in [18], the outcome was Active. In the data set with Leishmania donovani [19], this compound had a 90% effect concentration (IC90) of 1.8 µg/mL (≈ 3.28 µM). Also, in the data set with SH-SY5Y, the Activity entry is listed as “Non-toxic”. Further, the LC50 at 96 h in data set [3] amounted to 74 nM. In addition, the selectivity ratio in data set [4] stood at 2.3. Moreover, the lowest concentration to inhibit growth in data set [21] (MIC) was 1.5 µg/mL (≈ 2.73 µM). The “inhibition (INH)” value in data set [22] was found to be 20%.

Consider `C1=C(c2nccc3c2[nH]c2ccccc23)[C@@H]2CCN3CCCC/C=C\CC[C@]14O[C@@]15/C=C\CCCCN1[C@@H]4[C@]2(C3)C5` [12,34-OXAMANZAMINE A], for which the result (in the data set with Staphylococcus aureus [5]; in data set [23]; in data set [9]; in data set [10]; in data set [11]; in the data set on Staphylococcus aureus [12]) was inactive. Further, the result in the data set with Plasmodium falciparum [13] and in the data set with Cryptococcus neoformans was inactive. Further, the Activity entry in the data set on Vero [8] is on record as “Non-toxic”. Also, the IC50 in the data set with Plasmodium falciparum [17] was 4.76 µg/mL (≈ 8.71 µM); with Leishmania donovani [19] it was 14 µg/mL (≈ 25.6 µM). In the data set with Leishmania donovani [19], this compound registered a 90% effect concentration (IC90) of 40 µg/mL (≈ 73.2 µM).

Values taken from ChEMBL document CHEMBL1142603, “Manzamine B and E and ircinal A related alkaloids from an Indonesian Acanthostrongylophora sponge and their activity against infectious, tropical parasitic, and Alzheimer's diseases” (J Nat Prod, 2006).
